The subject of test [1] is Rats. Description: Heart rate in rats adapted to a thermoneutral environment; D500 dose and selectivity index (test b). As to conditions: selectivity index = ratio of D500 to ED50 in test (a).
Test [2] relates to Rats. Put plainly: Metabolic rate by closed-circuit oxygen consumption in fasted rats (test c). In kind it is in vivo. As to conditions: at 1mgkg^-1 p.o.; determined for at least one hour after dosing.
Another test has as its system BAT mitochondria. Put plainly: GDP binding in BAT mitochondria of cold-adapted rats as a measure of thermogenic activation (test a). In kind it is in vivo. As to conditions: Rattus norvegicus, 1 h; oral; dose producing 50% of the effect of isoprenaline (1 mgkg-1) on GDP binding; rats sacrificed one hour after dosing.

For the molecule `COCC(=O)Cc1ccc(OCCNCC(O)c2ccccc2)cc1` (stereo not shown) [Example 1, 1-[4-(2-(2-Hydroxy-2-phenylethylamino)ethoxy)phenyl]-3-methoxypropan-2-one], the SI with Rats [1] (oral) is > 50. Further, the metabolic rate in the test on Rats [2] is 4.99 ml O2 min^-1 (Kg^0.75)^-1. Further, the ED50 – broadly, the dose at which the effect has come halfway, by size or by number of responders – in the test on BAT mitochondria stood at 0.98 mg/kg.

For the molecule `CC(C)NCC(O)c1ccc(O)c(O)c1` (stereo not shown) [isoprenaline, reference compound], the SI in the test on Rats [1] (route not stated) was found to be 0.06.

The record behind these values is patent EP0565317A1, “(2-(2-hydroxy-2 phenylethylamino)ethoxy) phenyl derivatives, processes and intermediates for their preparation, pharmaceutical compositions containing them and their use as Beta-3-adrenoceptor agonists” (ZENECA LIMITED, priority 1992, dated 1993).
